{"source": "patent US20240238305A1", "about": "“FORMULATIONS OF 3-((3-(4-(2-(ISOBUTYLSULFONYL)PHENOXY)-3-(TRIFLUOROMETHYL)PHENYL)-1,2,4-OXADIAZOL-5-YL)METHYL)-5,5-DIMETHYL-1-(2-MORPHOLINOETHYL)IMIDAZOLIDINE-2,4-DIONE” (Novartis AG, priority 2021, published 2024)", "key": {"[1]": {"tested_on": "SCD1", "assay": "Measurement of SCD1 expression in SZ95-SCD1-HiBit cells (HiBiT assay)", "type": "cell-based, human", "experimental": "SCD1 expression levels in SZ95 cells were quantitated using the HiBiT system (Promega) in which a small peptide sequence (SmBiT) with a larger protein (LgBiT) reconstitutes luciferase activity and can generate a luminescent signal used for quantitation. […] The gRNA targeting sequence used was […] (SEQ ID NO: 3) and the SCD1 insertion oligonucleotide encoding the SmBiT sequence was:\nSZ95-SCD1-HiBit cells were seeded in 384-well cell culture white plates at a density of 3000 cells/[…]. Water was added to edge wells to avoid evaporation. Cells were incubated in a humidified incubator with 5% CO2 at 37° C. overnight. Tested compounds were diluted at a ratio of 1:3 in DMSO using an Agilent BRAVO Automated Liquid Handling Platform and, after further serial dilutions, added to cells at final concentrations starting from 18 μM. 2-(3-(3-((2-chloro-3-(trifluoromethyl)benzyl)(2,2-diphenylethyl)amino)propoxy)phenyl)acetic acid was used as a reference compound in each plate. Cells in the assay plate were incubated in a humidified incubator with 5% CO2 at 37° C. for 48h.\nThe assay plates were removed from the incubator and allowed to equilibrate to room temperature. […] Plates were placed on an orbital shaker at a speed of 300-600 rpm for 10 min at room temperature, and read on an EnVision Plate Reader using luminescence detection with a 1 second read time. […]"}, "[2]": {"tested_on": "SZ95 sebocytes", "assay": "Sentinel Lipid Assay (SLA), global desaturation index", "type": "cell-based, human", "experimental": "The sentinel lipid assay was used quantify the change in the global desaturation index in SZ95 sebocytes upon administration of Compound 1. The assay measures a smaller subset of lipid analytes in meibum (termed “sentinel lipids”) which would model the global changes the population of both saturated and desaturated lipids in the cells. In order to define this smaller subset of lipids, a complete lipid profile was recorded on dose response curves (eight levels from 4 nM to 10 uM) of Compound 1. […]\nA medium throughput assay was created using this reduced set of sentinel lipids. […] Lipids were extracted from the cells using a 1:1 mixture of methylene chloride/methanol containing 10 nM of deuterated standards of triglycerides, which are used as internal standards for quantitating the lipid abundance. […] The abundance of the sentinel lipids and the internal standards are measured using multiple reaction monitor mode (MRM) on a triple quadrupole mass spectrometer. […] In order to compare compounds from multiple batches with one another, the measure raw desaturation index was normalized by dividing it by the desaturation index of the DMSO dosed cells, and all data was assessed as the fraction by which the compound increases the desaturation index above 1. […]"}, "[3]": {"details": "normalized to reference compound Amax of 100%"}}}
{"smiles": "O=C(O)Cc1cccc(OCCCN(Cc2cccc(C(F)(F)F)c2Cl)CC(c2ccccc2)c2ccccc2)c1", "note": "[Reference, 2-(3-(3-((2-chloro-3-(trifluoromethyl)benzyl)(2,2-diphenylethyl)amino)propoxy)phenyl)acetic acid]", "values": [{"measurement": "HiBit Amax", "setting": "[1]; SZ95-SCD1-HiBit cells, 48h, compared to reference compound", "value": 95.1}, {"measurement": "HiBit Normalized Amax", "setting": "[1]; [3]", "value": 100.0, "unit": "%"}, {"measurement": "SLA Amax", "setting": "[2]; SZ95 cells, 72h, compared to reference compound", "value": 96.0}, {"measurement": "SLA Normalized Amax", "setting": "[2]; [3]", "value": 100.0, "unit": "%"}]}
